{"source": "ChEMBL document CHEMBL5500404", "about": "“Discovery and Development of NLRP3 Inhibitors Targeting the LRR Domain to Disrupt NLRP3-NEK7 Interaction for the Treatment of Rheumatoid Arthritis” (J Med Chem, 2024)", "key": {"[1]": {"experiment": "Cytotoxicity against human THP-1 cells assessed as cellular proliferation inhibition measured after 48 hrs by MTT assay", "assay_type": "toxicity, cell-based"}, "THP-M [2]": {"tested_on": "THP-M", "experiment": "Effect on ASC (apoptosis-related speck-like protein containing a CARD) level in LPS/nigericin-induced human THP-M cells assessed as inhibition of pro-IL-1beta level at 20 to 60 uM pretreated for 24 hrs followed by stimulated with LPS for 3 hrs and ATP for 1 hr by Western blot analysis relative to control", "assay_type": "functional, cell-based", "conditions": "dose 20-60 µM, time 28.0 hrs"}, "[3]": {"molecular_target": "NLR family CARD domain-containing protein 4 (Homo sapiens) (UniProt Q9NPP4)", "sequence (Q9NPP4 whole entry, the tested form may be a part)": "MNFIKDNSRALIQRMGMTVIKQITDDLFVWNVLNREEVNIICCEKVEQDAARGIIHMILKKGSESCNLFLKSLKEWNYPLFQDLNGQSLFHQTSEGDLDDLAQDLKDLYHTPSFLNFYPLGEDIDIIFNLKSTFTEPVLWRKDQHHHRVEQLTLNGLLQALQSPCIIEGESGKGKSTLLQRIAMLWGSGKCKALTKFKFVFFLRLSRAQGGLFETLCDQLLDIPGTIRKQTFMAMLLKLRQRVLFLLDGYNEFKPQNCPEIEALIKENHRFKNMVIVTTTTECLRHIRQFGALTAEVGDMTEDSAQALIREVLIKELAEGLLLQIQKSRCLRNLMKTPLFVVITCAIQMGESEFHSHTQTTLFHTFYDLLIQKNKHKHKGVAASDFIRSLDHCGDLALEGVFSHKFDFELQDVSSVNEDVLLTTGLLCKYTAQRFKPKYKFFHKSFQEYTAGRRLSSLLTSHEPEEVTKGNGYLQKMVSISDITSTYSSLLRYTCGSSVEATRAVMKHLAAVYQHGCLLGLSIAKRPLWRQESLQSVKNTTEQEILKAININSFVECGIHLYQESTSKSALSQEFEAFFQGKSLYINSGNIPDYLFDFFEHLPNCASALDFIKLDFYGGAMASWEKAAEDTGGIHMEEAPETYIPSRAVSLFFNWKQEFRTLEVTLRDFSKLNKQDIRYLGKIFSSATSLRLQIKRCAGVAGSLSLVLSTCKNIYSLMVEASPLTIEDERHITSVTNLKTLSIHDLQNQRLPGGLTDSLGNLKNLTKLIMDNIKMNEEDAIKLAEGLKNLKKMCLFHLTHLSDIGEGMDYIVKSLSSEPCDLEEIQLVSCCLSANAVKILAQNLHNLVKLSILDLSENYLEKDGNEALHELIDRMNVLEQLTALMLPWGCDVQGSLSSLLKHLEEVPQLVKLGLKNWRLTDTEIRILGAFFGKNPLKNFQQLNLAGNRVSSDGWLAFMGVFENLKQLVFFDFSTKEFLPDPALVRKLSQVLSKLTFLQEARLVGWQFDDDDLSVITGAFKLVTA", "experiment": "Inhibition of NLRC4 inflammasome in flagellin of Salmonella typhimurium-induced human THP-M cells assessed as inhibition of IL-1beta level at 20 to 60 uM pretreated for 24 hrs followed by stimulated with LPS by ELISA", "assay_type": "cell-based", "conditions": "dose 20-60 µM"}, "[4]": {"molecular_target": "T1, Interferon-inducible protein AIM2 (Homo sapiens) (UniProt O14862)", "T1 sequence (whole entry)": "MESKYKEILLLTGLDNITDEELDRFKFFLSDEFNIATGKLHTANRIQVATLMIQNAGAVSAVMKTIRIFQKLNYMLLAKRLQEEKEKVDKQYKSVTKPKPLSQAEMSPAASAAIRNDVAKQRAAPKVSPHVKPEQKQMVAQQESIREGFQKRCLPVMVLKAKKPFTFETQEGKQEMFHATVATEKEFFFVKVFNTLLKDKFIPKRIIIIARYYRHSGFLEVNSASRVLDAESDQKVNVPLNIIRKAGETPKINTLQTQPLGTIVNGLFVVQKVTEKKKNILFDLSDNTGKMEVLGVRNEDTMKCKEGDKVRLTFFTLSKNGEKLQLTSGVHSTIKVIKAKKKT", "experiment": "Inhibition of AIM2 inflammasome in poly(DA:DT)-induced human THP-M cells assessed as inhibition of IL-1beta level at 20 to 60 uM pretreated for 24 hrs followed by stimulated with LPS by ELISA", "assay_type": "cell-based", "conditions": "dose 20-60 µM"}, "THP-M [5]": {"tested_on": "THP-M", "experiment": "Effect on transcription of NLRP3 in LPS-induced human THP-M cells assessed as NLRP3 mRNA expression at 10 to 50 uM pretreated for 24 hrs followed by stimulated with LPS for 4 hrs by qRT-PCR analysis", "assay_type": "functional, cell-based", "conditions": "dose 10-50 µM, time 28.0 hrs"}, "THP-M [6]": {"tested_on": "THP-M", "experiment": "Inhibition of NLRP3 and […] protein-protein interaction in human THP-M cells assessed as suppression activation of NLRP3 inflammasome by affecting ASC oligomerization at 10 to 50 uM pretreated for 24 hrs followed by stimulated with LPS for 3 hrs and ATP for 1 hr by co-IP analysis", "assay_type": "cell-based", "conditions": "dose 10-50 µM, time 28.0 hrs"}, "Rattus norvegicus [7]": {"tested_on": "Rattus norvegicus", "experiment": "(§1) Anti-inflammatory activity against complete Freund's adjuvant (CFA)-induced arthritis rat model assessed as reduction in body weight at 20 to 80 mg/kg, ip treated after 17 days of CFA challenge measured after 18 days (day 17 to 34) relative to control", "assay_type": "functional, organism-based", "conditions": "dose 20-80 mg/kg, time 18.0 day"}, "Rattus norvegicus [8]": {"tested_on": "Rattus norvegicus", "experiment": "Anti-inflammatory activity against complete Freund's adjuvant (CFA)-induced arthritis rat model assessed as recovery in degree of swelling in left hind paw at 20 to 80 mg/kg, ip treated after 17 days of CFA challenge measured after 18 days (day 17 to 34) relative to control", "assay_type": "functional, organism-based", "conditions": "dose 20-80 mg/kg, time 18.0 day"}, "Rattus norvegicus [9]": {"tested_on": "Rattus norvegicus", "experiment": "Anti-inflammatory activity against complete Freund's adjuvant (CFA)-induced arthritis rat model assessed as recovery in degree of swelling in right hind paw at 20 to 80 mg/kg, ip treated after 17 days of CFA challenge measured after 18 days (day 17 to 34) relative to control", "assay_type": "functional, organism-based", "conditions": "dose 20-80 mg/kg, time 18.0 day"}, "Rattus norvegicus [10]": {"tested_on": "Rattus norvegicus", "experiment": "(§2) Anti-inflammatory activity against complete Freund's adjuvant (CFA)-induced arthritis rat model assessed as decrease in spleen index at 20 to 80 mg/kg, ip treated after 17 days of CFA challenge measured after 18 days (day 17 to 34) relative to model group", "assay_type": "functional, organism-based", "conditions": "dose 20-80 mg/kg, time 18.0 day"}, "Rattus norvegicus [11]": {"tested_on": "Rattus norvegicus", "experiment": "Anti-inflammatory activity against complete Freund's adjuvant (CFA)-induced arthritis rat model assessed as decrease in spleen size at 20 to 80 mg/kg, ip treated after 17 days of CFA challenge measured after 18 days (day 17 to 34) relative to model group", "assay_type": "functional, organism-based", "conditions": "dose 20-80 mg/kg, time 18.0 day"}, "Rattus norvegicus [12]": {"tested_on": "Rattus norvegicus", "experiment": "Anti-inflammatory activity against complete Freund's adjuvant (CFA)-induced arthritis rat model assessed as decrease in serum IL-1beta level at 20 to 80 mg/kg, ip treated after 17 days of CFA challenge measured after 18 days (day 17 to 34) by ELISA relative to model group", "assay_type": "functional, organism-based", "conditions": "dose 20-80 mg/kg, time 18.0 day"}, "Rattus norvegicus [13]": {"tested_on": "Rattus norvegicus", "experiment": "as §2, with “synovial hyperplasia” for “decrease”, “rat synovium from the left rear ankle” for “spleen index”, “34) by H and E staining based assay” for “34)”", "assay_type": "functional, organism-based", "conditions": "dose 20-80 mg/kg, time 18.0 day"}, "Rattus norvegicus [14]": {"tested_on": "Rattus norvegicus", "experiment": "as §1, with “NLRP3 in rat synovium from the left rear ankle” for “body weight”, “34) by immunohistochemistry based assay” for “34)”, “model group” for “control”", "assay_type": "functional, organism-based", "conditions": "dose 20-80 mg/kg, time 18.0 day"}, "Rattus norvegicus [15]": {"tested_on": "Rattus norvegicus", "experiment": "as §1, with “NLRP3 in rat synovium from the left rear ankle” for “body weight”, “34) by immunofluorescence based assay” for “34)”, “model group” for “control”", "assay_type": "functional, organism-based", "conditions": "dose 20-80 mg/kg, time 18.0 day"}, "[16]": {"experiment": "Tmax in Sprague-Dawley rat at 20 mg/kg, IG measured upto 1440 mins by LC-MS/MS analysis", "assay_type": "ADME, organism-based", "conditions": "in vivo, po"}, "[17]": {"experiment": "AUC (0 to t) in Sprague-Dawley rat at 20 mg/kg, IG measured upto 1440 mins by LC-MS/MS analysis", "assay_type": "ADME, organism-based", "conditions": "in vivo, po"}, "[18]": {"experiment": "AUC (0 to infinity) in Sprague-Dawley rat at 20 mg/kg, IG measured upto 1440 mins by LC-MS/MS analysis", "assay_type": "ADME, organism-based", "conditions": "in vivo, po"}, "[19]": {"experiment": "MRT (0 to t) in Sprague-Dawley rat at 20 mg/kg, IG measured upto 1440 mins by LC-MS/MS analysis", "assay_type": "ADME, organism-based", "conditions": "in vivo, po"}, "[20]": {"experiment": "MRT (0 to infinity) in Sprague-Dawley rat at 20 mg/kg, IG measured upto 1440 mins by LC-MS/MS analysis", "assay_type": "ADME, organism-based", "conditions": "in vivo, po"}, "[21]": {"experiment": "Apparent clearance during terminal phase in Sprague-Dawley rat at 20 mg/kg, IG measured upto 1440 mins by LC-MS/MS analysis", "assay_type": "ADME, organism-based", "conditions": "in vivo, po"}, "[22]": {"experiment": "Apparent volume of distribution during terminal phase in Sprague-Dawley rat at 20 mg/kg, IG measured upto 1440 mins by LC-MS/MS analysis", "assay_type": "ADME, organism-based", "conditions": "in vivo, po, read-out: Vz/F"}, "[23]": {"experiment": "Half life in Sprague-Dawley rat at 20 mg/kg, ip measured upto 720 mins by LC-MS/MS analysis", "assay_type": "ADME, organism-based", "conditions": "in vivo"}, "[24]": {"experiment": "AUC (0 to t) in Sprague-Dawley rat at 20 mg/kg, ip measured upto 720 mins by LC-MS/MS analysis", "assay_type": "ADME, organism-based", "conditions": "in vivo"}, "[25]": {"experiment": "AUC (0 to infinity) in Sprague-Dawley rat at 20 mg/kg, ip measured upto 720 mins by LC-MS/MS analysis", "assay_type": "ADME, organism-based", "conditions": "in vivo, 12 h"}, "[26]": {"experiment": "MRT (0 to t) in Sprague-Dawley rat at 20 mg/kg, ip measured upto 720 mins by LC-MS/MS analysis", "assay_type": "ADME, organism-based", "conditions": "in vivo"}, "[27]": {"experiment": "MRT (0 to infinity) in Sprague-Dawley rat at 20 mg/kg, ip measured upto 720 mins by LC-MS/MS analysis", "assay_type": "ADME, organism-based", "conditions": "in vivo"}, "[28]": {"experiment": "Bioavailability in Sprague-Dawley rat at 20 mg/kg, ip measured upto 720 mins by LC-MS/MS analysis", "assay_type": "ADME, organism-based", "conditions": "in vivo"}}, "note": "Active and inactive are the calls of the source. The rule behind the calls is not given here."}
{"smiles": "COCCCNC(=O)c1ccc(Cn2c(SCC3CCCCC3)nc3ccncc32)cc1", "values": [{"measurement": "IC50 at 48 h", "setting": "[1]", "value": "> 100", "unit": "µM"}, {"measurement": "inhibition", "setting": "THP-M [2]", "value": "inactive"}, {"measurement": "inhibition", "setting": "[3]", "value": "inactive"}, {"measurement": "inhibition", "setting": "[4]", "value": "inactive"}, {"measurement": "Activity", "setting": "THP-M [5]", "value": "inactive"}, {"measurement": "inhibition", "setting": "THP-M [6]", "value": "Dose-Dependent Effect"}, {"measurement": "Activity", "setting": "Rattus norvegicus [7]", "value": "Active"}, {"measurement": "Activity", "setting": "Rattus norvegicus [8]", "value": "Active"}, {"measurement": "Activity", "setting": "Rattus norvegicus [9]", "value": "Active"}, {"measurement": "Activity", "setting": "Rattus norvegicus [10]", "value": "Active"}, {"measurement": "Activity", "setting": "Rattus norvegicus [11]", "value": "Active"}, {"measurement": "Activity", "setting": "Rattus norvegicus [12]", "value": "Active"}, {"measurement": "Activity", "setting": "Rattus norvegicus [13]", "value": "Active"}, {"measurement": "Activity", "setting": "Rattus norvegicus [14]", "value": "Active"}, {"measurement": "Activity", "setting": "Rattus norvegicus [15]", "value": "Active"}, {"measurement": "Tmax", "setting": "[16]", "value": 16.7, "unit": "min"}, {"measurement": "AUC(0-t) at 24 h", "setting": "[17]", "value": 837, "unit": "ng·h/mL"}, {"measurement": "AUC(0-inf)", "setting": "[18]", "value": 867, "unit": "ng·h/mL"}, {"measurement": "MRT last at 24 h", "setting": "[19]", "value": 138, "unit": "min"}, {"measurement": "MRT inf", "setting": "[20]", "value": 162, "unit": "min"}, {"measurement": "CL/F", "setting": "[21]", "value": 410, "unit": "mL/min/kg"}, {"measurement": "Vd/F", "setting": "[22]", "value": 73.4, "unit": "L/kg"}, {"measurement": "half-life", "setting": "[23]", "value": 44.1, "unit": "min"}, {"measurement": "AUC(0-t) at 12 h", "setting": "[24]", "value": 1860, "unit": "ng·h/mL"}, {"measurement": "AUC", "setting": "[25]", "value": 112685, "unit": "ng·min/mL"}, {"measurement": "MRT last at 12 h", "setting": "[26]", "value": 41.9, "unit": "min"}, {"measurement": "MRT inf", "setting": "[27]", "value": 44.5, "unit": "min"}, {"measurement": "bioavailability", "setting": "[28]", "value": 11.5, "unit": "%"}]}
